Measured values from the NIST ThermoML archive (doi:10.1021/je300843n).

Settings: Liquid, Ebulliometric method (Recirculating still)

C [methane]
Settings	vapor or sublimation pressure [kPa]
126.01 K	286.85
127.99 K	324.94
130.02 K	367.76
132.01 K	413.65
133.98 K	463.11
135.99 K	517.9
137.97 K	576.38
140.01 K	641.51
